From BindingDB's records for doi:10.1016/j.bmcl.2005.11.092 (Astrazeneca R&D, 2006)

Each compound was assayed against Metabotropic glutamate receptor 5 (Homo sapiens, UniProt P41594) (assay: Inhibition of glutamate-induced calcium influx in human mGluR5d by FLIPR).
Sequence of Metabotropic glutamate receptor 5 (P41594 whole entry): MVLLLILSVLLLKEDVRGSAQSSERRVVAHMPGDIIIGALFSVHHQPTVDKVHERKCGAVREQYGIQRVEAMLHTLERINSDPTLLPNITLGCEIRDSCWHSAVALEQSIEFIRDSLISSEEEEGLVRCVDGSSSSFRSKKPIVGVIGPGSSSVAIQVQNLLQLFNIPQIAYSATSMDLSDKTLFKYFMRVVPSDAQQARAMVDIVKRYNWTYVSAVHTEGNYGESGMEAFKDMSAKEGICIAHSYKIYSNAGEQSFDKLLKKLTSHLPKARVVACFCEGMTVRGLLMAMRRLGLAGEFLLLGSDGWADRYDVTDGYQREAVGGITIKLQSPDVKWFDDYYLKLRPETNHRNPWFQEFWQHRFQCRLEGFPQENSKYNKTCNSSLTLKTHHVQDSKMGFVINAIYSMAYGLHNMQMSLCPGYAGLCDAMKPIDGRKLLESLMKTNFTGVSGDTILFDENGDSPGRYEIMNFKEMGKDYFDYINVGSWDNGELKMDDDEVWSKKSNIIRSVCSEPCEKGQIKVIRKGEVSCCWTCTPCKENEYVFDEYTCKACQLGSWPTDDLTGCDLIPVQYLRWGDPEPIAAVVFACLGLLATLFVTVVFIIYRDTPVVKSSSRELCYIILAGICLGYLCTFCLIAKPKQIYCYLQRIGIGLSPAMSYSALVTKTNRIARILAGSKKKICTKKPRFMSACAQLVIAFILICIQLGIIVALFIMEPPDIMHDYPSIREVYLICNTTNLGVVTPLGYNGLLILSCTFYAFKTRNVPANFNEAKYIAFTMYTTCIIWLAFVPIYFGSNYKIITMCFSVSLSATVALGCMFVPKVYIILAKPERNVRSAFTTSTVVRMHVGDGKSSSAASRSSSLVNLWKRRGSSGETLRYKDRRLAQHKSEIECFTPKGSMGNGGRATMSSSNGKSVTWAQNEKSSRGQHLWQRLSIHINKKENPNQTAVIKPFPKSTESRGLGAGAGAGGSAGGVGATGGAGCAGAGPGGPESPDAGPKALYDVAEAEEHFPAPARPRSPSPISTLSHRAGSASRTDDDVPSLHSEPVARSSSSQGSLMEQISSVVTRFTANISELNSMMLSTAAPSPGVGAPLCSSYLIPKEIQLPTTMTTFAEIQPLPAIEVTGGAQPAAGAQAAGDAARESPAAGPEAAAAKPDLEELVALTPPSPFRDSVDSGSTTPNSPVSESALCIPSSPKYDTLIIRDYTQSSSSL

`Cc1ccccc1NC(=O)Nc1nc(O)c2n1CCC2` [1-(1-oxo-hexahydropyrrolo[1,2-e]imidazol-3-ylidene)-3-o-tolylurea] and `Cc1cccc(NC(=O)Nc2nc(O)c3n2CCC3)c1C` [1-(2,3-dimethylphenyl)-3-(1-oxo-hexahydropyrrolo[1,2-e]imidazol-3-ylidene)urea] cannot be ordered by IC50: > 10 µM for the first, > 10 µM for the second.

`Cc1ccc(C)c(NC(=O)Nc2nc(O)c3n2CCC3)c1` [1-(2,5-dimethylphenyl)-3-(1-oxo-hexahydropyrrolo[1,2-e]imidazol-3-ylidene)urea] and `Cc1ccc(NC(=O)Nc2nc(O)c3n2CCC3)cc1Cl` [1-(3-chloro-4-methylphenyl)-3-(1-oxo-hexahydropyrrolo[1,2-e]imidazol-3-ylidene)urea] cannot be ordered by IC50: > 10 µM for the first, > 10 µM for the second.

`Cn1cc(O)nc1NC(=O)Nc1cccs1` [1-(1-methyl-4-oxoimidazolidin-2-ylidene)-3-(thiophen-2-yl)urea] and `Cn1cc(O)nc1NC(=O)Nc1ccccc1` [(E)-1-(1-methyl-4-oxoimidazolidin-2-ylidene)-3-phenylurea] are the same in IC50: 4.9 µM for the first, 4.9 µM for the second.

`Cn1cc(O)nc1NC(=O)Nc1cc(Cl)cc(Cl)c1` [1-(3,5-dichlorophenyl)-3-(1-methyl-4-oxoimidazolidin-2-ylidene)urea] and `COC(=O)c1cccc(NC(=O)Nc2nc(O)cn2C)c1` [methyl 3-(3-(1-methyl-4-oxoimidazolidin-2-ylidene)ureido)benzoate] cannot be ordered by IC50: > 10 µM for the first, > 10 µM for the second.

`O=C(Nc1ccc(Cl)cc1)Nc1nc(O)c2n1CCC2` [1-(4-chlorophenyl)-3-(1-oxo-hexahydropyrrolo[1,2-e]imidazol-3-ylidene)urea] and `CCCCCCNC(=O)Nc1nc(O)cn1C` [1-hexyl-3-(1-methyl-4-oxoimidazolidin-2-ylidene)urea] cannot be ordered by IC50: > 10 µM for the first, > 10 µM for the second.
